Measurements: US10960088B2, “Macrocycles, cobalt and iron complexes of same, and methods of making and using same” (The Research Foundation for The State University of New York, priority 2013, dated 2021)

Experiment: Effective magnetic moment in solution from magnetic susceptibility (NMR)
Assay type: physicochemical
Details: for μeff: 5 mM Co^II complex in D2O; for magnetic moment: 25° C. in D2O
Method: The effective magnetic moment (μeff) was calculated by using a previously known method. 5 mM Co^II complex and 5% t-butanol by volume was placed in a NMR insert while the outer NMR tube contained 5% by volume t-butanol in D2O. The μeff was calculated at 298 K (T) and monitored over a period of 72 hours using the following approach.
The mass susceptibility of solute (χg) was calculated by obtaining the observed frequency shift of the reference (Δf) in Hz, the spectrometer frequency (f) in Hz, the mass of the substance per cm^3 of solution (m), and the mass susceptibility of solvent D2O (χ0=−0.6466×10^−6 cm^3/g). The last term is neglected due to the minimal contribution to mass susceptibility of solute. The molar susceptibility (χm) is the product of χg multiplied by the molecular weight of the Co^II complex.
The effective magnetic moment was calculated by using a previously known method. In a typical experiment, oxygen-free solution of 8-20 mM [Co(TPT)]^2+ in deuterium oxide, pD 7.0, containing 5% tert-butanol by volume was placed in an NMR tube, while a reference solution of 5% tert-butanol (v/v) in deuterium oxide, pD 7.0, was placed into NMR tube insert. All solutions of [Co(TPT)]^2+ were purged with argon and kept in the absence of air. The effective magnetic moment (μeff) was calculated at 298 K (T) using the following equations 7-8. In these equations the mass susceptibility of solute (χg) was calculated by obtaining the observed frequency shift of the reference (Δf) in Hz, the spectrometer frequency (f) in Hz, the mass of the substance per cm^3 of the solution (m), and the mass susceptibility of deuterium oxide (χ0=−0.6466×10^−6 cm^3/g). The last term in eq. SI is neglected due to the minimal contribution to mass susceptibility of solute. The molar susceptibility (χm) is the product of χg multiplied by the molecular weight of the [Co(TPT)]Cl2 complex. Reported value of the effective magnetic moment was obtained by averaging of three independent experiments. χg=(−3Δf)/(4πfm)+χ0+[χ0(d0−ds)]/m eq. 7 μeff=2.84(χmT)^1/2 eq. 8

A μeff of 4.6 µB and a magnetic moment of 4.6 μB were found for `NC(=O)CN1CCCN(CC(N)=O)CCN(CC(N)=O)CCCN(CC(N)=O)CC1.[Co+2]` [[Co(CCRM)]^2+] in this work.

A μeff of 4.1 µB and a magnetic moment of 4.1 μB were found for `NC(=O)CN1CCOCCOCCN(CC(N)=O)CCOCC1.[Co+2]` [[Co(NOPE)]^2+] in this work.

A μeff of 4.5 µB and a magnetic moment of 4.5 μB were found for `NC(=O)CN1CCN(CC(N)=O)CCN(CC(N)=O)CCN(CC(N)=O)CC1.[Co+2]` [[Co(TCMC)]^2+] in this work.

A μeff of 5.2 µB and a magnetic moment of 5.2 μB were found for `NC(=O)CN1CCN(CC(N)=O)CCN(CC(N)=O)CC1.[Co+2]` [[Co(TCMT)]^2+] in this work.
